# Key:
# [1] = tested on: Carrageenan-induced paw edema; assay: Carrageenan-Induced Paw Edema in Rats; type: in vivo, rat; settings: oral, 30 mg/kg; *p < 0.05
# Procedure: The antiinflammatory activities of two compounds in accordance with the invention (those of Examples 1 and 10) were determined in vivo and compared to those of the known antiinflammatory agents indomethacin and meloxicam, using the Carrageenan-Induced Paw Edema in Rats protocol described by C. A Winter et al. J. Pharmacol. Exp. Ther. 1963, 141, 369. Test compounds were administered orally.
# [2] = target: Human cyclooxygenase 1 (COX-1) (Homo sapiens, UniProt P23219); assay: COX-1 inhibition, microsomal assay; settings: 20 min, read-out: % Inhibition of COX Enzymes in Microsomal Assays, COX-1
# Procedure: (§1) Human cyclooxygenase 1 and 2 are expressed in a baculovirus expression system using High 5 insect cells. Microsomal fractions prepared from the cells are stored at -80° C. The assays are performed at room temperature in phosphate buffered saline. After incubating the COX-1 or COX-2 microsomes with hematin (2 μM), phenol (0.5 mM) and reduced glutathione (1 mM) for 5 minutes, inhibitor or DMSO vehicle is added and allowed to incubate for 20 minutes. Arachidonic acid (2 μM) is added and after 20 minutes the reaction is stopped by the addition of HCl (0.1 N HCl final concentration).
# (§2) The inhibitory activities against COX-1 and COX-2 of the compounds described in the above Synthetic Examples were determined using the two in vitro assays described above.
# human recombinant COX-1 = target: T1, human recombinant COX-1 (Homo sapiens, UniProt P23219); assay: COX-1 inhibition, COS cell assay; type: cell-based
# T1 construct: expressed in transfected cells; host or cells: Cos-A2 cells, stably transfected
# Procedure: (§3) Cos-A2 cells stably transfected with human recombinant COX-1 or COX-2 are cultured in 96 well tissue culture plates with Dulbecco's Modified Eagle Medium supplemented with 10% fetal bovine serum, glutamine (2 mM), penicillin (50 U/mL), streptomycin ([…]) and geneticin (400 μg/mL). Media is removed from confluent monolayers and the cells are washed twice with Hank's buffered saline solution. Fresh HBSS is added, with or without inhibitor, and the cells are incubated for 30 minutes at 37° C. Arachidonic acid (30 μM) is then added and the cells are incubated for an additional one hour at 37° C. Individual experiments represent a mean of triplicate wells for control and inhibitor doses. Supernatents are removed and stored at -80° C. until assayed for PGE2 by EIA (Amersham).
# as §2
# [3] = target: T2, Human cyclooxygenase 2 (COX-2) (Homo sapiens, UniProt P35354); assay: COX-2 inhibition, microsomal assay; settings: 20 min, read-out: % Inhibition of COX Enzymes in Microsomal Assays, COX-2
# T2 sequence (P35354 18-604): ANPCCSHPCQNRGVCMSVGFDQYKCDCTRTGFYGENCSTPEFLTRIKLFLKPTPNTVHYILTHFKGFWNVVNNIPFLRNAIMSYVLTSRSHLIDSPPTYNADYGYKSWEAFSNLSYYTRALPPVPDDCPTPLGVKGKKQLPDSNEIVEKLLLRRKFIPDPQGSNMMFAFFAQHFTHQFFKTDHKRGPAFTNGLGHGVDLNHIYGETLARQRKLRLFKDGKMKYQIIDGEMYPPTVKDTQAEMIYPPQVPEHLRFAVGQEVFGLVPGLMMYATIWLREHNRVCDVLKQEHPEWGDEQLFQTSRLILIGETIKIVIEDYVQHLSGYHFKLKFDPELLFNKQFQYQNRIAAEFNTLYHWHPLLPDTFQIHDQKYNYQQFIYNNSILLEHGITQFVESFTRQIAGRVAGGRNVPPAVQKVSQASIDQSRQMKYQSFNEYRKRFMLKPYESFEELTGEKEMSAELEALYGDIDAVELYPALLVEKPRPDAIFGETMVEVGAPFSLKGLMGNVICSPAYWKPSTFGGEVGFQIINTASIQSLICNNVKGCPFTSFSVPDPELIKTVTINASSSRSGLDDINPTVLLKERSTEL
# Procedure: as §1, §2
# human recombinant COX-2 = target: T3, human recombinant COX-2 (Homo sapiens, UniProt P35354); assay: COX-2 inhibition, COS cell assay; type: cell-based; settings: COS cells, COX-2; read-out: Inhibition of COX Enzymes in COS Cell Assays, COX-2 IC50
# T3 construct: expressed in transfected cells; host or cells: Cos-A2 cells, stably transfected
# T3 sequence (P35354 18-604): T2 sequence (P35354 18-604)
# Procedure: as §3, §2
# COX-2 = settings: in words, background; cited from earlier work
# [4] = COS, read-out: Inhibition of COX Enzymes in COS Cell Assays, COX-1 % inhibition
# Human cyclooxygenase 1 (COX-1), sequence (P23219 24-599): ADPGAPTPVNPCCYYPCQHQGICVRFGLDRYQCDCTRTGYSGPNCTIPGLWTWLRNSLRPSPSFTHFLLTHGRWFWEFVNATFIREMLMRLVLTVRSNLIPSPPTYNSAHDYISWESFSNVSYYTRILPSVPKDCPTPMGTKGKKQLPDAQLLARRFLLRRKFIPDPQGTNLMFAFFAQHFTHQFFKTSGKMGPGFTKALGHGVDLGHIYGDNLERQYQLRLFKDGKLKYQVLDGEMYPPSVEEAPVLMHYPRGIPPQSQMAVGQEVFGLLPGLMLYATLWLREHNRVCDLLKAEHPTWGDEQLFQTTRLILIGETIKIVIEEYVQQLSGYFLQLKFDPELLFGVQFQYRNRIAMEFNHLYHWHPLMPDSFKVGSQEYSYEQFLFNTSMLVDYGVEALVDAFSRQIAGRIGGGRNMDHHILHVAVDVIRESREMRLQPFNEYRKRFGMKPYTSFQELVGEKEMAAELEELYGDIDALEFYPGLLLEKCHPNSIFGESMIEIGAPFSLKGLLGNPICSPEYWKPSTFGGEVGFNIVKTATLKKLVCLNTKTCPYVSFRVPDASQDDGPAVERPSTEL
# T1 sequence (P23219 24-599): as above
"IC50 (human recombinant COX-1; COS cells, COX-1, read-out: Inhibition of COX Enzymes in COS Cell Assays, COX-1 IC50) [nM]",SMILES,"Effect of Compounds in Carrageenen Paw Edema in Rats, % Inhibition [1] [%]",inhibition at 0.1 µg/mL [2] [%],inhibition at 1 µg/mL [2] [%],inhibition at 10 µg/mL [2] [%],inhibition at 0.1 µg/mL [3] [%],inhibition at 1 µg/mL [3] [%],inhibition at 10 µg/mL [3] [%],IC50 (human recombinant COX-2) [nM],inhibition at 0.1 µM (human recombinant COX-1; [4]) [%],inhibition at 1 µM (human recombinant COX-1; [4]) [%],inhibition at 10 µM (human recombinant COX-1; [4]) [%],selective inhibition of the COX-2 isoform (COX-2)
1400,"CC(C)S(=O)(=O)C1C(=O)N(Cc2ccccc2)C(=O)c2ccc(Cl)cc21 (stereo not drawn) [Example 1, 2-Benzyl-6-chloro-4-(1-methylethyl)sulfonyl-4H-isoquinolin-1,3-dione]",42.5,10,34,57,,,,,,,,
,CC(C)S(=O)(=O)C1C(=O)N(Cc2ccc(F)c(F)c2)C(=O)c2ccc(Cl)cc21 (stereo not drawn) [Example 10],38.6,13,40,96,-3,100,100,100,20,55,88,
,"Cc1cnc(NC(=O)C2=C(O)c3ccccc3S(=O)(=O)N2C)s1 [Meloxicam, reference compound]",56,,,,,,,,,,,more or less selectively inhibit the COX-2 isoform
